Test results from paper PMC7866009, “Evaluation of Nanotargeted ^111In-Cyclic RGDfK-Liposome in a Human Melanoma Xenotransplantation Model” (International Journal of Molecular Sciences, 2021).
Non-standard residues stand in square brackets, D forms with d.

Legend:
[1] = tested on: αVβ3 integrin-mediated adhesion of A375.S2 cells; assay: CytoSelect cell adhesion assay of A375.S2 cells on extracellular matrix proteins; assay type: cell-based, human; conditions: 100 nM; cells adhere to coated plate at 37 °C (1 h in legend, 90 min in method); crystal violet OD 560 nm; five experiments
Description: Next, we tested the effect of the cyclic RGDfK-liposome on the αVβ3 integrin -mediated cellular adhesion using human malignant melanoma A375.S2 cells on recombinant extracellular matrix proteins.
Figure 1 Evaluating the effect of the cyclic RGDfK-liposome on αVβ3 integrin-mediated cell adhesion. […] A375.S2 cells was pretreated with 100 nM cRGDfV, cRGDfK, cRGDfK-PEG2000-DSPE or the cRGDfK-liposome and allowed to adhere to a coating of fibronectin, collagenI or collagen IV for 1 h at 37 °C before washing and detection of cell adhesion (B) or followed by staining with FITC-labeled mouse anti-human CD51/CD61 monoclonal antibody (C). […] These experiments were performed for five times.
Adhesion assay were performed with CytoSelect TM Cell Adhesion Assay Kit. Principle, A375.S2 cells (1 × 10^6/well) in working solution (serum-free MEM medium, 1mM Mn^2+, and 0.5% bovine serum albumin) were allowed to adhere to extracellular matrix proteins-coated plate for 90 min at 37 °C. Cells were analyzed for binding in the presence or absence of test subjects. Non-adherent cells were removed by a flick wash. The adherent cells were stained with crystal violet and examined the optical density at λmax 560 nm.

integrin αVβ3 = conditions: cited from earlier work
Excerpt: The arginin-glycine-aspatic acid (RGD) sequence is the cell attachment site of a large number of adhesive extracellular matrix, blood, and cell surface proteins, and nearly half of the over 20 known integrins recognize this sequence in their adhesion protein ligands. The integrin-binding selective activity to only one or a few of the RGD-directed integrins can be designed by cyclizing peptides with selected sequences around the RGD.

[2] = molecular target: αVβ3 integrin (human (endogenous in A375.S2)) (UniProt P06756)
[3] = molecular target: αVβ3 integrin (human (endogenous in A375.S2)) (UniProt P06756); remark: listed apart in the source

Chain of UniProt P06756 (P06756 31-1048, chain 1 of 2): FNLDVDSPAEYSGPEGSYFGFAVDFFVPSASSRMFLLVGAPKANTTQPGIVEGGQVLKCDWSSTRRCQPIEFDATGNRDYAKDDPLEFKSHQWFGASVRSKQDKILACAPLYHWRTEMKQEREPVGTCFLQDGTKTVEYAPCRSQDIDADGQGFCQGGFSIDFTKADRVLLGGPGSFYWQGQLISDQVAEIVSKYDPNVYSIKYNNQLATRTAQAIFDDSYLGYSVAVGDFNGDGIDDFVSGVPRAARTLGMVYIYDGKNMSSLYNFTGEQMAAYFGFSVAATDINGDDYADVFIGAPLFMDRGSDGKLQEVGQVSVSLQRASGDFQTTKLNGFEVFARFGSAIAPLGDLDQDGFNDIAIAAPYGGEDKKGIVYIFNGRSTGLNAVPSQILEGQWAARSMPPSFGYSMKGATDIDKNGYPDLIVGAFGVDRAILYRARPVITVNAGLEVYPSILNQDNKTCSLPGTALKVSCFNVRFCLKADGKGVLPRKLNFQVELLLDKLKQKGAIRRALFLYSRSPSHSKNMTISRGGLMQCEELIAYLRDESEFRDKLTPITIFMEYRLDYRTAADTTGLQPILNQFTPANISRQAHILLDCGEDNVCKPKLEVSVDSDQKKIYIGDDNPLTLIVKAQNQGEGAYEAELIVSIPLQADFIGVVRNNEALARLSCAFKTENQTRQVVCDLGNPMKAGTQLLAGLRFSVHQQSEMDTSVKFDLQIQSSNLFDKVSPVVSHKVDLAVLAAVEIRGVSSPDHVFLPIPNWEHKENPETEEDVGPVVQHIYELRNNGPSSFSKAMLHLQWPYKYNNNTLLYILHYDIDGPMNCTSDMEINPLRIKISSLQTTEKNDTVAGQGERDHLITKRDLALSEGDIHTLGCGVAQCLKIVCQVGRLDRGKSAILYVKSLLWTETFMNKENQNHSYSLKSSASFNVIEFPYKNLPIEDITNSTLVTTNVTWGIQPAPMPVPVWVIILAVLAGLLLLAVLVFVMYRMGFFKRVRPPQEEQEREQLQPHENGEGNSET
Chain of UniProt P06756 (P05106 27-788, chain 2 of 2, further chain): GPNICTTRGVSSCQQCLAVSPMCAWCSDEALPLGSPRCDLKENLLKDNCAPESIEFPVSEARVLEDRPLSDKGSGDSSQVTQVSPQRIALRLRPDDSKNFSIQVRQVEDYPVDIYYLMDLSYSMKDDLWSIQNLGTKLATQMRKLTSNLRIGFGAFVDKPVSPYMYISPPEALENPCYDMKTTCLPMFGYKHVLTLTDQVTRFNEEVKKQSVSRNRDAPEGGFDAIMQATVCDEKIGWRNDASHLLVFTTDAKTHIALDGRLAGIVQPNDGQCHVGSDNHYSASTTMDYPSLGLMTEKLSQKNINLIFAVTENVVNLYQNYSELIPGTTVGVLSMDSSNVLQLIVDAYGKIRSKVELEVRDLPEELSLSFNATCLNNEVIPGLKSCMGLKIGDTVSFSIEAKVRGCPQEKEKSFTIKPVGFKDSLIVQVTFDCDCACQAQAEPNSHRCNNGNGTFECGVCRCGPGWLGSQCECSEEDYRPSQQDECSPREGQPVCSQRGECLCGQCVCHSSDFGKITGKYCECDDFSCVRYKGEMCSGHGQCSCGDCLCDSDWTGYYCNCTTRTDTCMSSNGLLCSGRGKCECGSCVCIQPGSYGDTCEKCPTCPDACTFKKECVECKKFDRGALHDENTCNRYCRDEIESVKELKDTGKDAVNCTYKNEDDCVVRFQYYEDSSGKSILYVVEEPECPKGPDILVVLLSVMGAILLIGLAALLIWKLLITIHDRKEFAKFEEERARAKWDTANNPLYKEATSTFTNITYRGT

Row | tumor-to-blood ratio of the 111In-labeled cyclic RGDfK-liposome, mice with a metastatic growth of human melanoma cells (111In-liposome without peptide: 1.3) [2] | uptake of the 111In-labeled cyclic RGDfK-liposome in tumor (jejunal lymph node), mice with a metastatic growth of human melanoma cells (111In-liposome without peptide: 2.9) [2] | tumor-to-blood ratio of the 111In-labeled cyclic RGDfK-liposome, mice without a metastatic growth of human melanoma cells (111In-liposome without peptide: 1) [3] | uptake of the 111In-labeled cyclic RGDfK-liposome in tumor, mice without a metastatic growth of human melanoma cells (111In-liposome without peptide: 2.2) [3] | Molecule | A375.S2 cell adhesion to fibronectin, collagen I, and collagen IV [1] | binding affinity for integrin αVβ3 (integrin αVβ3)
1 | – | – | – | – | N=C(N)NCCC[C@@H]1NC(=O)[C@H](CCCCN)NC(=O)[C@@H](Cc2ccccc2)NC(=O)[C@H](CC(=O)O)NC(=O)CNC1=O [cRGDfK] | markedly reduced | high binding affinity
2 | – | – | – | – | CC(C)[C@@H]1NC(=O)[C@@H](Cc2ccccc2)NC(=O)[C@H](CC(=O)O)NC(=O)CNC(=O)[C@H](CCCNC(=N)N)NC1=O [cRGDfV] | markedly reduced | high binding affinity
3 | 5.6 | 6.2 %ID/g | 4.8 | 5.3 %ID/g | cyclo(RGD[dF]K) (also: conjugated via NHS-PEG2000-DSPE, inserted into PEGylated liposome) [cyclic RGDfK-liposome] | – | –
